Laboratory results published in ChEMBL document CHEMBL1138221, “Synthesis and evaluation of multisubstrate bicyclic pyrimidine nucleoside inhibitors of human thymidine phosphorylase” (J Med Chem, 2006).

Experiment: Stability in acidic buffer at pH 1.0 in 37 degC
Type: physicochemical
Settings: for Stability: buffer

Stability	half-life (acidic buffer) [h]	Structure (SMILES)
Stable	–	Cc1cn([C@@H]2O[C@H](CO)[C@H]3C[C@H](CP(=O)(O)O)O[C@H]32)c(=O)[nH]c1=O
Stable	–	Cc1cn([C@@H]2O[C@H](CO)[C@H]3C[C@@H](CP(=O)(O)O)O[C@H]32)c(=O)[nH]c1=O
–	98	Cc1cn([C@@H]2O[C@H](CO)[C@H]3O[C@@H](CP(=O)(O)O)O[C@H]32)c(=O)[nH]c1=O
Stable	–	Cc1cn([C@@H]2O[C@H](CO)[C@H]3O[C@@H](CP(=O)(O)O)C[C@H]32)c(=O)[nH]c1=O
